Test results: patent US11685714B2, “Prodrugs of cytotoxic active agents having enzymatically cleavable groups” (BAYER PHARMA AKTIENGESELLSCHAFT, priority 2016, dated 2023)

Assay: Assay for determination of stability in rat liver lysosomes
Type: in vitro ADME
Details: over 24 h, 37° C.
Method: To determine the lysosomal stability of compounds A and B, lysosomal enzymes were isolated from rat liver cells. Compounds A and B were each added to this lysosomal extract in order to examine stability under lysosomal conditions. The proteolytic enzyme legumain is expressed only in a very small amount, if any, in rat liver lysosomes (Chen, J-M. et al 1997). To monitor the enzymatic activity of the lysosomal enzymes, a cathepsin-specific substrate was added.
First of all, a fresh rat liver was removed, weighed and immediately placed on ice in homogenization medium (0.25 M sucrose, 1 mM EDTA, 10 mM HEPES, pH7). The liver was comminuted and a change of medium was undertaken. The rat livers were homogenized with 4 times the amount of the rat liver weight at 750 rpm in a Potter (B. Braun). The homogenate was centrifuged at 1000 g for 10 min and the supernatant was filtered. In the next step, with the aid of an ultracentrifuge, the “light mitochondrial fraction” (LMF) was centrifuged out of the supernatant at 26 500 g over 20 min. […]
The sucrose was added from a 2.3 M stock solution of the particular percentage. […] To monitor the lysis, the protein content of the lysed lysosomal fraction was monitored with the aid of a BCA assays (Pierce BCA protein assay kit). […] For the RP-HPLC LCMS analysis, the samples were diluted with 300 μl of 10 mM ammonium acetate buffer (pH 6.8) and analysed.

For `CNC(=O)[C@H](CCN(C(=O)CO)[C@@H](c1cc(-c2cc(F)ccc2F)cn1Cc1ccccc1)C(C)(C)C)NC(=O)[C@H](CC(N)=O)NC(=O)[C@@H](C)NC(=O)[C@H](C)NC(=O)Cc1ccncc1` [Example R3r-LDL, N-(Pyridin-4-ylacetyl)-L-alanyl-D-alanyl-N^1-[(2S)-4-[{(1R)-1-[1-benzyl-4-(2,5-difluorophenyl)-1H-pyrrol-2-yl]-2,2-dimethylpropyl}(glycoloyl)amino]-1-(methylamino)-1-oxobutan-2-yl]-L-aspartamide], the “stability in rat liver lysosomal extract” value was “stable”.
